{"source": "patent US8241607B2", "about": "“Use of fructose-based compounds for the diagnosis of cancer” (priority 2005, dated 2012)", "key": {"[1]": {"system": "GLUT-5 mRNA", "experiment": "Quantitative real-time RT-PCR of GLUT-5 mRNA in MCF-7 cells", "assay_type": "cell-based", "protocol": "FIG. 10 depicts GLUT-5 expression levels in accordance with an embodiment of the present invention. MCF-7 breast cancer cells were incubated in 2 mM glucose (Glu), 5.5 mM glucose (Glu) or 5.5 mM fructose (Fru) for 4 or 24 hours, after which GLUT-5 expression was quantified using real-time RT-PCR, normalized to GAPDH levels, and expressed as fold-increase compared to GLUT-5 levels detected in MCF-7 cells cultured in 2 mM glucose for a similar time period.\nCellular fructose uptake is facilitated by a member of solute carrier family 2, called glucose transporter type 5 (GLUT-5). Following incubation of MCF-7 breast cancer cells in 2 mM, 5.5 mM glucose or 5.5 mM fructose for […], total RNA was harvested, and analyzed by quantitative real-time RT-PCR analysis using GLUT-5 specific primers to quantify GLUT-5 mRNA expression. GLUT-5 expression was normalized to GAPGH mRNA expression, and expressed as fold-change in comparison to control breast cancer cells incubated in 2 mM glucose for 4, and 24 hours."}, "[2]": {"system": "AP1", "experiment": "ELISA-based transbinding AP1 assay in MCF-7 cells", "assay_type": "cell-based", "settings": "5.5 mM sugar, 24 h", "protocol": "FIG. 12 depicts an increase in AP1 activation in fructose-treated cells in accordance with an embodiment of the present invention. MCF-7 breast cancer cells were incubated in 2 mM glucose, or 5 mM glucose or fructose for 24 h, after which nuclear extracts were incubated with a biotinylated AP-1 probe in binding buffer. AP-1/AP1 probe complexes were next conjugated to a streptavidin-coated assay plate and detected using an AP-1 specific antibody, followed by binding of a horseradish-peroxidase conjugated secondary antibody, and detection by a colorimetric reagent. *, p<0.001.\nAlthough several signal transduction pathways are likely involved in the fructose-mediated enhanced breast cancer growth and while not wishing to be bound by any particular theory, the inventors believe that the MAP-kinase pathway is involved. The inventors have used Western blot analysis to examine the MAPK pathway in breast cancer cells incubated in 2 mM glucose, 5.5 mM glucose, and 5.5 mM fructose for 48 hours. […] Activation of MEK, and subsequently ERK results in phosphorylation of p90^Rsk, which leads to transcriptional activation of CREB and AP1, which bind to cAMP or AP1 response elements respectively, activating gene transcription and promoting cellular growth."}, "[3]": {"system": "primary pancreatic cancers", "experiment": "BRDU uptake in primary cultures of surgically resected pancreatic cancers", "assay_type": "cell-based, human", "settings": "all 5 primary pancreatic cancers; 5.5 mM fructose compared to 5.5 mM glucose, 72 h", "protocol": "FIG. 18 depicts BRDU incorporation by pancreatic cells in accordance with an embodiment of the present invention. Freshly resected pancreatic cancers were mechanically and enzymatically dispersed, and cells were pre-incubated in 2 mM glucose prior to treatment with 5.5 mM glucose or fructose for 72 h. BRDU (10 μM) was added to the medium at 48 h, and BRDU-uptake quantified at 72 h.\nAs immortalized cell-lines, such as PANC-1 pancreatic cancer cells, can become dedifferentiated after repeated passages, and in order to translate these findings in the PANC-1 cells to patients with pancreatic cancer, the inventors also examined proliferative rates in primary cultures of fresh surgically resected pancreatic cancers, following incubation in 2 mM, and 5.5 mM glucose or 5.5 mM fructose. Briefly, after mechanical and enzymatic (trypsin and DNAse) disaggregation, aliquots of tumor cells were seeded in 6-well plates, and incubated in standard DMEM media with 10% fetal bovine serum, and 2 mM glucose, 5.5 mM glucose, or 5.5 mM fructose for 72 h. As before in the PANC-1 experiments, BRDU (10 μM) was added in the […] of incubation in the sugars, following which BRDU-uptake was quantified."}, "[4]": {"system": "GLUT-5 mRNA", "experiment": "Real-time RT-PCR of GLUT-5 mRNA in PANC-1 cells", "assay_type": "cell-based", "settings": "5.5 mM fructose, 24 h", "protocol": "FIG. 22 depicts […] mRNA levels in pancreatic cancer cells in accordance with an embodiment of the present invention. Quantitative real-time RT-PCR was used to measure GLUT-5 mRNA levels in pancreatic cancer cells (PANC-1), following culture in 2 mM glucose, 5.5 mM glucose, or 5.5 mM fructose for 4 h and 24 h.\nBrit J Biomed Sci 56(4): 285-292, 1999; Rogers S, Docherty S E, Slavin J L, Henderson and Best J D. Differential expression of GLUT12 in breast cancer and normal breast tissue. Cancer Letters 193(2): 225-233, 2003). […] Real-time RT-PCR was used to measure GLUT-5 mRNA expression following 2 mM, and 5.5 mM glucose-, and 5.5 mM fructose-treatment for 4 h, and 24 h respectively. GLUT-5 mRNA was expressed as the fold-change relative to GLUT-5 mRNA levels in 2 mM glucose-treated cells. As depicted in FIG. 22, at 4 h, GLUT-5 mRNA levels were low in both the 5.5 mM glucose-, and fructose-treated PANC-1 cells. […] This agrees with other studies which have reported fructose-induced GLUT-5 mRNA expression in colon cancer (74)."}, "[5]": {"system": "AP-1", "experiment": "AP-1 probe binding assay on nuclear extracts of a primary culture of a pancreatic tumor", "assay_type": "cell-based, human", "settings": "5.5 mM sugar, 48 h", "protocol": "FIG. 24 depicts luciferase activity of PANC-1 cells and primary culture of surgically resected pancreatic tumor cells in accordance with an embodiment of the present invention. PANC-1 pancreatic cancer cells and a primary culture of a surgically resected pancreatic tumor were incubated in 2 mM glucose, 5.5 mM glucose or 5.5 mM fructose for 48 h, after which nuclear extracts were incubated with a biotinylated AP-1 probe, and detected by an antibody-linked colorimetric method. *, p<0.01\nIn separate experiments PANC-1 cells, and primary cultures of surgically resected pancreatic tumors were incubated in 2 mM glucose, or 5.5 mM glucose or 5.5 mM fructose for 48 h, after which nuclear extracts were incubated with a biotinylated AP-1 probe in binding buffer. AP-1/AP1 probe complexes were next conjugated to a streptavidin-coated assay plate and detected using an AP-1 specific antibody, followed by binding of a horseradish-peroxidase conjugated secondary antibody, and detection by a colorimetric reagent."}}}
{"smiles": "O=C(CO)[C@@H](O)[C@H](O)[C@H](O)CO", "note": "[fructose]", "values": [{"measurement": "increase in GLUT-5 expression", "setting": "[1]; 5.5 mM fructose compared to 5.5 mM glucose, 24 hour incubation", "result": "two-fold increase"}, {"measurement": "change in GLUT-5 mRNA expression", "setting": "[1]; 5.5 mM glucose or 5 mM fructose, 4 hours, vs 2 mM glucose", "result": "no significant change"}, {"measurement": "increase in AP1 activation", "setting": "[2]", "result": 3, "unit": "fold"}, {"measurement": "proliferative rates (BRDU-uptake)", "setting": "[3]", "result": "higher proliferative rates"}, {"measurement": "GLUT-5 mRNA levels relative to 2 mM glucose-treated cells", "setting": "[4]", "result": 1.5, "unit": "fold higher"}, {"measurement": "GLUT-5 mRNA levels relative to 5.5 mM glucose-treated cells", "setting": "[4]", "result": 1.75, "unit": "fold higher"}, {"measurement": "increase in AP-1 activation compared to 2 mM glucose", "setting": "[5]", "result": 2.1, "unit": "fold"}]}
